Numbering of substitutions follows the chain as printed.
Assays:
[1] = target: T1, E. coli KARI Ec_IlvC variant Ec_IlvC^B8A71S-his6 (Q110V, S78D, A71S), SEQ ID NO: 29 (Escherichia coli, UniProt P05793, A71S/Q110V/S78D); assay: KARI cuvette assay, purified Ec_IlvC^B8A71S-his6; assay type: biochemical
T1 sequence (P05793 with tags, fused parts or gaps A71S/S78D/Q110V): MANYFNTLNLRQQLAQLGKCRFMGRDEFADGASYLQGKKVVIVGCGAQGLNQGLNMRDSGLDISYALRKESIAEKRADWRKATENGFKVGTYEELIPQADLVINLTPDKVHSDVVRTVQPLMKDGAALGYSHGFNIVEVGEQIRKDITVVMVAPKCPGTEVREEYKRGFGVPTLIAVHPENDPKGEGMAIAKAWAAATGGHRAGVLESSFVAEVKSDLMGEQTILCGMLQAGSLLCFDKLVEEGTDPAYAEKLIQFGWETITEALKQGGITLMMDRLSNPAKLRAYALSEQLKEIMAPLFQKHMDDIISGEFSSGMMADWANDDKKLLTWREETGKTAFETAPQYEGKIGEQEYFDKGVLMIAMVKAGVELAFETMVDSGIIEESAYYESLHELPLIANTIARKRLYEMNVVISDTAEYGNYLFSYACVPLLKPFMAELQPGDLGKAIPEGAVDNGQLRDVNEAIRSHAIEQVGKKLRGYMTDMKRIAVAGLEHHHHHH
Description: (§1) KARI cuvette assay: KARI activity was assayed kinetically by monitoring the decrease in NAD(P)H concentration by measuring the absorbance at 340 nm. A reaction buffer was prepared containing 250 mM potassium phosphate pH 7, 1 mM DTT and 10 mM MgCl2. Cell pellets were resuspended (0.25 g wet weight/mL buffer) in 250 mM potassium phosphate (KPi) buffer containing 1 mM DTT and 10 mM MgCl2. The resuspended cells were lysed by sonication for 1 min with a 50% duty cycle and pelleted at 11000×g and 4° C. for 15 min. A reaction mixture consisting of 910 μl reaction buffer, 50 μl acetolactate, and 20 μl lysate was prepared in a cuvette. The reaction was initiated by addition of 20 μL of 10 mM NAD(P)H. A substrate free control was conducted using reaction buffer without the addition of acetolactate.
(§2) Purification of KARI: Cell pellets used for purification were resuspended in purification buffer A (20 mM Tris, 20 mM imidazol, 100 mM NaCl, 10 mM MgCl2, pH 7.4). KARI was purified by IMAC (Immobilized metal affinity chromatography) over a 1 ml Histrap High Performance (histrap HP) column pre-charged with Nickel (GE Healthcare) using an Akta FPLC system (GE Healthcare). […]

[2] = target: T2, E. coli KARI Ec_IlvC variant Ec_IlvC^S78D-his6 (S78D), SEQ ID NO: 17 (Escherichia coli, UniProt P05793, S78D); assay: KARI cuvette assay, purified Ec_IlvC^S78D-his6; assay type: biochemical; conditions: relative to Ec_IlvC^his6 with NADPH
T2 sequence (P05793 with tags, fused parts or gaps S78D): T1 sequence (P05793 with tags, fused parts or gaps A71S/S78D/Q110V) with S71A, V110Q
Description: as §1, §2

## NC(=O)C1=CN([C@@H]2O[C@H](COP(=O)(O)OP(=O)(O)OC[C@H]3O[C@@H](n4cnc5c(N)ncnc54)[C@H](O)[C@@H]3O)[C@@H](O)[C@H]2O)C=CC1 [NADH, nicotinamide adenine dinucleotide]
[1]; purified, acetolactate as substrate
  kcat/KM: 38330 M⁻¹ s⁻¹
[1]; relative to Ec_IlvC^his6 with NADPH
  (kcat/KM with NADH)/(kcat/KM of Ec_IlvC^his6 with NADPH): 44%
[2]
  (kcat/KM with NADH)/(kcat/KM of Ec_IlvC^his6 with NADPH): 32%
